Measured values taken from the CheMixHub ionic liquid set.

Test: xn = mol fraction of the nth substance listed
Conditions: for electrical conductivity: frequency 0.01 MHz

CCCC[n+]1ccn(C)c1.F[P-](F)(F)(F)(F)F + C1CCOC1
Conditions	viscosity [mPa·s]
298.15 K, 101 kPa, x2 = 0.195	91

CC#N + C=C[n+]1ccn(CC(N)=O)c1.O=S(=O)([N-]S(=O)(=O)C(F)(F)F)C(F)(F)F
Conditions	viscosity [mPa·s]
323.15 K, 100 kPa, x2 = 0	0.262

CCCC[n+]1ccn(C)c1.O=S(=O)([N-]S(=O)(=O)C(F)(F)F)C(F)(F)F + CC1CC(=O)O1
100 kPa, x1 = 1
Conditions	electrical conductivity [S/m]
293.15 K	0.337
298.15 K	0.4
303.15 K	0.472
308.15 K	0.552
313.15 K	0.64
318.15 K	0.733
323.15 K	0.835

CCCC[n+]1ccn(C)c1.O=S(=O)([N-]S(=O)(=O)C(F)(F)F)C(F)(F)F + CC1CCC(=O)O1
100 kPa, x1 = 1
Conditions	electrical conductivity [S/m]
293.15 K	0.337
298.15 K	0.4
303.15 K	0.472
308.15 K	0.552
313.15 K	0.64
318.15 K	0.733
323.15 K	0.835

CCCC[n+]1ccn(C)c1.O=S(=O)([N-]S(=O)(=O)C(F)(F)F)C(F)(F)F + CC1COC(=O)O1
101.3 kPa, x1 = 1
Conditions	viscosity [mPa·s]
288.15 K	80.3
308.15 K	33.95
328.15 K	17.98

CC[N+](CC)(CC)CC.F[B-](F)(F)F + CC1COC(=O)O1
101 kPa
Conditions	viscosity [mPa·s]
283.15 K, x1 = 0.001044	3.574
283.15 K, x1 = 0.001302	3.581
283.15 K, x1 = 0.001888	3.591
283.15 K, x1 = 0.003069	3.625
283.15 K, x1 = 0.003925	3.642
283.15 K, x1 = 0.005619	3.663
283.15 K, x1 = 0.007445	3.702
283.15 K, x1 = 0.009039	3.739
283.15 K, x1 = 0.01054	3.769
283.15 K, x1 = 0.01391	3.835
283.15 K, x2 = 0.9206	5.439
283.15 K, x2 = 0.9274	5.243
283.15 K, x2 = 0.9419	4.842
283.15 K, x2 = 0.9434	4.813
283.15 K, x2 = 0.9551	4.515
283.15 K, x2 = 0.9624	4.356
283.15 K, x2 = 0.9701	4.177
298.15 K, x1 = 0.001682	2.557
298.15 K, x1 = 0.003455	2.58
298.15 K, x1 = 0.004813	2.598
298.15 K, x1 = 0.006017	2.613
298.15 K, x1 = 0.007139	2.628
298.15 K, x1 = 0.008167	2.641
298.15 K, x1 = 0.009079	2.657
298.15 K, x1 = 0.01102	2.68
298.15 K, x1 = 0.01252	2.701
298.15 K, x1 = 0.01813	2.774
298.15 K, x2 = 0.9206	3.716
298.15 K, x2 = 0.9283	3.58
298.15 K, x2 = 0.9528	3.189
298.15 K, x2 = 0.971	2.924
308.15 K, x1 = 0.001119	2.101
308.15 K, x1 = 0.003553	2.127
308.15 K, x1 = 0.005754	2.15
308.15 K, x1 = 0.006805	2.161
308.15 K, x1 = 0.007615	2.17
308.15 K, x1 = 0.008953	2.182
308.15 K, x1 = 0.01146	2.209
308.15 K, x1 = 0.01324	2.228
308.15 K, x2 = 0.9174	3.043
308.15 K, x2 = 0.9215	2.977
308.15 K, x2 = 0.9382	2.775
308.15 K, x2 = 0.9417	2.728
308.15 K, x2 = 0.9539	2.586
308.15 K, x2 = 0.9711	2.396
308.15 K, x2 = 0.9798	2.303
313.15 K, x1 = 0.00395	1.953
313.15 K, x1 = 0.004693	1.963
313.15 K, x1 = 0.005951	1.972
313.15 K, x1 = 0.00774	1.988
313.15 K, x1 = 0.009433	2.003
313.15 K, x1 = 0.01082	2.018
313.15 K, x2 = 0.9272	2.638
313.15 K, x2 = 0.9371	2.531
313.15 K, x2 = 0.9469	2.429
313.15 K, x2 = 0.9574	2.325
313.15 K, x2 = 0.9712	2.185
313.15 K, x2 = 0.9797	2.106
